Test results from patent US20110118337A1, “Method of Using Compositions Comprising MIR-192 and/or MIR-215 for the Treatment of Cancer” (Merck Sharp & Dohme Corp., priority 2008, published 2011).

Test system: HCT116DICER^ex5 cells
Assay: Cell cycle FACS screen of pools of three siRNAs per gene (G1 after nocodazole, G2/M after aphidicolin)
Format: cell-based, human
Conditions: pools of 3 siRNAs/gene at 100 nM final, FACS 66 hours post-transfection, average of two experiments
From the text: To identify targets whose modulation influences the cell cycle arrest phenotype observed with miR-192 expression, the 62 candidate genes identified as described in Example 2 and shown in TABLE 3 were silenced individually by transfecting a pool of 3 gene-specific siRNA duplexes per gene (each directed to a different region of the gene) into HCT116DICER^ex5 cells. The siRNA duplex sequences (3 duplexes per gene) used to target each of the 62 genes are shown below in TABLE 5. The siRNA duplex oligonucleotides were obtained from Sigma-Genesys, as described in Linsley, P. S. et al., Mol Cell Biol 27:2240-2252 (2007).
HCT116DICER^ex5 cells were transiently transfected with pools of three different siRNA duplexes per gene at a 100 nM final concentration using Lipofectamine RNAiMax (Invitrogen), according to the manufacturer's instructions. At 48 hours post transfection, cells were left untreated, treated with nocodazole (100 ng/mL, Sigma-Aldrich), or treated with aphidicolin (2 μg/mL, Sigma-Aldrich) for an additional 18 hours before harvesting. The cells transfected with the siRNA pools were then screened by FACS analysis as described in Example 3 for the percentage of cells arrested in G1 or G2/M as compared to the negative siRNA luciferase control.
The siRNA pools tested in this screen were ranked according to the percentage of cells arrested in G1 or G2/M following transfection, as compared with a negative control siRNA targeting luciferase. To avoid being misled by possible RNAi off-target effects, the siRNA pools were deconvoluted to identify genes for which at least 2 different siRNA duplexes from the pool caused the cell cycle arrest phenotype (data not shown).
TABLE 6 summarizes the data obtained 66 hours post-transfection by FACS analysis showing the cell cycle distribution of the HCT116DICER^ex5 cells transfected with siRNA pools of 3 siRNAs/gene. Each pool was analyzed in two separate experiments, and the average percentage of the cells trapped in G1 (following nocodazole treatment), or G2/M (following aphidicolin treatment) are shown in TABLE 6.

FGF2
% G2 (Avg), Aphidicholin+ (aphidicolin 2 μg/mL 18 h): 19.8% | % G1 (Avg), Nocodazole+ (nocodazole 100 ng/mL 18 h): 33.7%
